From ChEMBL document CHEMBL4811258, “Potent Antimalarials with Development Potential Identified by Structure-Guided Computational Optimization of a Pyrrole-Based Dihydroorotate Dehydrogenase Inhibitor Series” (J Med Chem, 2021)
pEC50, pIC50: −log10 of the molar value. Values after ≈ are worked out from the molar mass of the structure shown.

Assays:
[1] = Inhibition of Plasmodium falciparum DHODH expressed in Escherichia coli BL21-DE3 using L-dihydroorotate as substrate by steady-state DCIP method
[2] = Inhibition of Plasmodium vivax DHODH expressed in Escherichia coli BL21-DE3 using L-dihydroorotate as substrate by steady-state DCIP method
[3] = molecular target: Dihydroorotate dehydrogenase (quinone), mitochondrial (Rattus norvegicus, UniProt Q63707); experiment: Inhibition of rat DHODH up to 100 uM; details: up to 100 µM
Sequence of Dihydroorotate dehydrogenase (quinone), mitochondrial (Rattus norvegicus, UniProt Q63707) (Q63707 whole entry): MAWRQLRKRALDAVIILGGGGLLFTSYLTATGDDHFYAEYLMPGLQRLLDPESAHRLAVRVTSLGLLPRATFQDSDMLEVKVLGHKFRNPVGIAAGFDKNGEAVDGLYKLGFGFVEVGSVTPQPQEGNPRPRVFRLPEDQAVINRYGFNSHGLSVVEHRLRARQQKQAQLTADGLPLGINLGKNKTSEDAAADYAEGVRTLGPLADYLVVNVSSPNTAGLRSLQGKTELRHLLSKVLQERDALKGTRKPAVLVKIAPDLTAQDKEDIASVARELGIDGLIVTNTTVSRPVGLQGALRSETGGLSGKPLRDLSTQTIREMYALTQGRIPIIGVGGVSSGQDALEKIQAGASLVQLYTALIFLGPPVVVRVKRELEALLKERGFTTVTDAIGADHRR

[4] = molecular target: Dihydroorotate dehydrogenase (quinone), mitochondrial (Mus musculus, UniProt O35435); experiment: Inhibition of mouse DHODH up to 100 uM; details: up to 100 µM
Sequence of Dihydroorotate dehydrogenase (quinone), mitochondrial (Mus musculus, UniProt O35435) (O35435 whole entry): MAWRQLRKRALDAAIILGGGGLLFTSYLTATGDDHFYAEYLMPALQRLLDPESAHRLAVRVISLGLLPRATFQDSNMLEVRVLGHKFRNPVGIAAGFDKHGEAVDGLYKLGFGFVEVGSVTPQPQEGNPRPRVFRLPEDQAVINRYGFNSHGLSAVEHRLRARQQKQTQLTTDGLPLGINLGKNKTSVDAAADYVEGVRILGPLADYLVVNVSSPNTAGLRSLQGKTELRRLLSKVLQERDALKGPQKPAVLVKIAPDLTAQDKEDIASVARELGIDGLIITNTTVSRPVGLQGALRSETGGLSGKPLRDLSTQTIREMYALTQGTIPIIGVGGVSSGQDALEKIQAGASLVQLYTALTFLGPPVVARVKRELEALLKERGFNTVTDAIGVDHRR

[5] = Inhibition of dog DHODH up to 100 uM; set-up: species or system Canis lupus familiaris; details: up to 100 µM
L1210 = experiment: Cytotoxicity against mouse L1210 cells; format: cell-based
HepG2 = experiment: Cytotoxicity against human HepG2 cells; format: cell-based
Albumin = Albumin (Bos taurus, UniProt P02769); experiment: Binding affinity to bovine serum albumin by Albumax assay; format: ADME; details: cattle, isolated protein
Sequence of Albumin (P02769 whole entry): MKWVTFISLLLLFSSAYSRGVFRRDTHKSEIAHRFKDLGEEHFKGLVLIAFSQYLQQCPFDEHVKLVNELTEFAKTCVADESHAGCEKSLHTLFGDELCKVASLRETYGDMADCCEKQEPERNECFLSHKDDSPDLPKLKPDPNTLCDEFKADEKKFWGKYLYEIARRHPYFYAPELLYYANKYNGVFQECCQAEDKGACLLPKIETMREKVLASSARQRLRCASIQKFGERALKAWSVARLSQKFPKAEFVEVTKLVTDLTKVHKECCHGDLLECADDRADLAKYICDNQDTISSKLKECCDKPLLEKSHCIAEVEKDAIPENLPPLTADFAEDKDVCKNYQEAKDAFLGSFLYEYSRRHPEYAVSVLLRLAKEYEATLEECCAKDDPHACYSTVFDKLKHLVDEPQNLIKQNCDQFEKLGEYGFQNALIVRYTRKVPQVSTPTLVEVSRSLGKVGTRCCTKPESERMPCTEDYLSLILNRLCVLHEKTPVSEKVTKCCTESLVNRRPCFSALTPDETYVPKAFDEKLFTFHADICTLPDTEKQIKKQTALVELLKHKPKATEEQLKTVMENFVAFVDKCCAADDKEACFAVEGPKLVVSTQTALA

[6] = Binding affinity to microsome (unknown origin); format: ADME; details: microsomes
[7] = Intrinsic clearance in mouse liver microsomes at 1 uM measured up to 4 hrs by LC-MS analysis; format: ADME, Microsome
[8] = Unbound intrinsic clearance in mouse liver microsomes at 1 uM measured up to 4 hrs by LC-MS analysis; format: ADME, Microsome
[9] = Half life in Swiss mouse at 20 mg/kg, po measured up to 24 hrs by LC-MS analysis; format: ADME, organism-based; details: in vivo
[10] = Tmax in Swiss mouse at 20 mg/kg, po measured up to 24 hrs by LC-MS analysis; format: ADME, organism-based; details: in vivo
[11] = Cmax in Swiss mouse at 20 mg/kg, po measured up to 24 hrs by LC-MS analysis; format: ADME, organism-based; set-up: route oral, dose 20 mg/kg, time <=24; details: in vivo
[12] = AUC (0 to infinity) in Swiss mouse at 20 mg/kg, po measured up to 24 hrs by LC-MS analysis; format: ADME, organism-based; set-up: route oral, dose 20 mg/kg, time <=24; details: in vivo
[13] = Plasma clearance in Sprague-Dawley rat at […], iv measured up to 24 hrs; format: ADME, organism-based; details: dose 2.8 mg/kg
[14] = Volume of distribution at steady state in Sprague-Dawley rat at […], iv measured up to 24 hrs; format: ADME, organism-based; details: in vivo, dose 2.8 mg/kg, read-out: Vdss
[15] = Apparent half life in Sprague-Dawley rat at 32 mg/kg, po measured up to 24 hrs; format: ADME, organism-based; details: in vivo, read-out: t1/2(app) (converted)
[16] = Tmax in Sprague-Dawley rat at 32 mg/kg, po measured up to 24 hrs; format: ADME, organism-based; details: in vivo
[17] = Cmax in Sprague-Dawley rat at 32 mg/kg, po measured up to 24 hrs; format: ADME, organism-based; set-up: route oral, dose 32 mg/kg, time <=24; details: in vivo
[18] = AUC (0 to infinity) in Sprague-Dawley rat at 32 mg/kg, po measured up to 24 hrs; format: ADME, organism-based; set-up: route oral, dose 32 mg/kg, time <=24; details: in vivo
[19] = Oral bioavailability in Sprague-Dawley rat at 32 mg/kg measured up to 24 hrs; format: ADME, organism-based; details: in vivo
Plasmodium falciparum [20] = experiment: Antiplasmodial activity against asexual blood stage Plasmodium falciparum D10 expressing yeast DHODH infected in human erythrocytes assessed as parasite killing; format: functional, organism-based
Plasmodium falciparum [21] = experiment: Antiplasmodial activity against asexual blood stage Plasmodium falciparum D10 expressing yeast DHODH infected in human erythrocytes assessed as parasite killing in presence of proguanil; format: functional, organism-based
Plasmodium falciparum [22] = experiment: Antiplasmodial activity against Plasmodium falciparum 3D7 Uganda infected in human erythrocytes assessed as parasite killing using albumax media measured after 72 hrs by SYBR Green assay; format: functional, organism-based; details: 3D7, 72 h
Plasmodium falciparum [23] = experiment: Antiplasmodial activity against Plasmodium falciparum Dd2 Uganda infected in human erythrocytes assessed as parasite killing using albumax media measured after 72 hrs by SYBR Green assay; format: functional, organism-based; details: Dd2, 72 h
Plasmodium falciparum [24] = experiment: Antiplasmodial activity against Plasmodium falciparum Uganda field isolated from patients infected in human erythrocytes assessed as parasite killing using albumax media measured after 72 hrs by SYBR Green assay; format: functional, organism-based
Cytochrome P450 2C8 = molecular target: T1, Cytochrome P450 2C8 (Homo sapiens, UniProt P10632)
T1 sequence (P10632 whole entry): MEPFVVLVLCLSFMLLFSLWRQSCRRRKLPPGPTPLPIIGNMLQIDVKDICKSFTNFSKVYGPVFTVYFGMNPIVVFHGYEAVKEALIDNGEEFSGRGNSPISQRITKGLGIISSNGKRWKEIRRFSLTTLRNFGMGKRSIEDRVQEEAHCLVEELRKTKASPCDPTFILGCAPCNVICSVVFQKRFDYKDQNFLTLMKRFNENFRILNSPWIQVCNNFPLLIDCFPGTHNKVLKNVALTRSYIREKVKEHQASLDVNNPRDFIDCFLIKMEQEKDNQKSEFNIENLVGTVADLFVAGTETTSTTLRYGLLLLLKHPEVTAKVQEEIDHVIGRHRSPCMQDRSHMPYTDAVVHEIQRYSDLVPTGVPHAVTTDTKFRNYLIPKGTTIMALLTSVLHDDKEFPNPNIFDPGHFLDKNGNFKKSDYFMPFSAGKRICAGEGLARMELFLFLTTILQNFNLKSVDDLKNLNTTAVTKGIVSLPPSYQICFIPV

Cytochrome P450 3A4 = Cytochrome P450 3A4 (Homo sapiens, UniProt P08684)
Sequence of Cytochrome P450 3A4 (P08684 whole entry): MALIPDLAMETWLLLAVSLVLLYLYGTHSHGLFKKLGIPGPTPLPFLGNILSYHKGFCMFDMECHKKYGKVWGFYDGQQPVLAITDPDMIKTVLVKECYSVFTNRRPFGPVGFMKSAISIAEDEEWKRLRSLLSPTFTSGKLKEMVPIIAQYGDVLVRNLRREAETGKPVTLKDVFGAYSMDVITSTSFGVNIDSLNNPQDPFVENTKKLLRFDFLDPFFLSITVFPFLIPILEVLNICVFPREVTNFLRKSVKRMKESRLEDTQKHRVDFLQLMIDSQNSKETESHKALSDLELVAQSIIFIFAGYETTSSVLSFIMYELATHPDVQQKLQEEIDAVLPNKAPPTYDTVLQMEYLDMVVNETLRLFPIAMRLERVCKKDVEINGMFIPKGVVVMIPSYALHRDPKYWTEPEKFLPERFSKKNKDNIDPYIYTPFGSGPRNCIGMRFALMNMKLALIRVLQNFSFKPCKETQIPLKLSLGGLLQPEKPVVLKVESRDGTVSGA

[25] = buffer, pH 1.6, 1 h
[26] = simulated gi fluid, pH 6.5, 5 h
[27] = simulated gi fluid, pH 5.8, 5 h
[28] = human, plasma
[29] = rat, plasma
[30] = mouse, plasma
[31] = Plasma clearance in Swiss mouse at […], iv measured up to 24 hrs by LC-MS analysis; format: ADME, organism-based; details: dose 2.8 mg/kg
[32] = Volume of distribution at steady state in Swiss mouse at […], iv measured up to 24 hrs by LC-MS analysis; format: ADME, organism-based; details: in vivo, dose 2.8 mg/kg, read-out: Vdss
[33] = Oral bioavailability in Swiss mouse at 20 mg/kg measured up to 24 hrs by LC-MS analysis; format: ADME, organism-based; details: in vivo
[34] = Apparent half life in Sprague-Dawley rat at 28 mg/kg, po measured up to 24 hrs; format: ADME, organism-based; details: in vivo, read-out: t1/2(app) (converted)
[35] = Tmax in Sprague-Dawley rat at 28 mg/kg, po measured up to 24 hrs; format: ADME, organism-based; details: in vivo
[36] = Cmax in Sprague-Dawley rat at 28 mg/kg, po measured up to 24 hrs; format: ADME, organism-based; set-up: route oral, dose 28 mg/kg, time <=24; details: in vivo
[37] = AUC (0 to infinity) in Sprague-Dawley rat at 28 mg/kg, po measured up to 24 hrs; format: ADME, organism-based; set-up: route oral, dose 28 mg/kg, time <=24; details: in vivo
[38] = Oral bioavailability in Sprague-Dawley rat at 28 mg/kg measured up to 24 hrs; format: ADME, organism-based; details: in vivo
Plasmodium falciparum [39] = experiment: Antiplasmodial activity against asexual blood stage chloroquine and pyrimethamine-resistant Plasmodium falciparum Dd2 infected in human erythrocytes assessed as parasite killing; format: functional, organism-based
Plasmodium berghei = experiment: Antiplasmodial activity against liver stage Plasmodium berghei berghei-ANKA-GFP-Luc-SMCON (Pb-Luc) assessed as parasite killing infected in HepG2-A16-CD8IEGF cells; format: functional, organism-based
Plasmodium falciparum [40] = test system: Plasmodium falciparum
[41] = human, caco-2, pH 7.4
[42] = human, caco-2, pH 7.4; remark: listed apart in the source

SMILES	pIC50 [2]	inhibition (INH) [3]	inhibition (INH) [4]	inhibition (INH) [5]	Activity (L1210)	Activity (HepG2)	Activity (Albumin) [%]	Activity [6] [%]	Intrinsic clearance [7] [µL/min/mg]	CL free [8] [µL/min/mg]	half-life [9] [h]	Tmax [10] [h]	Cmax [11] [µM]	AUC(0-inf) [12] [µM·h]	PPB [28] [%]	PPB [29] [%]	PPB [30] [%]	further results
Cc1c(Cc2ccc(C(F)(F)F)nc2)c[nH]c1C(=O)NC(C)c1cnn(C)c1 (stereo in doubt; form 1)	8.41	Not Active	Not Active	Not Active	Non-Toxic	Non-Toxic	49.5	44.8	41	75	3.5	1	36	217	83	95.1	93.6	pIC50 [1]: 7.34; clearance at 24 h [13]: 2.4 mL/min/kg; Vd at 24 h [14]: 0.87 L/kg; half-life [15]: 3.7 h; Tmax [16]: 3.5 h; Cmax [17]: 35 µM; AUC(0-inf) [18]: 360 µM·h; bioavailability [19]: 61%; pEC50 (Plasmodium falciparum [20]): < 5.00; pEC50 (Plasmodium falciparum [21]): < 5.00; pEC50 (Plasmodium falciparum [22]): 8.21; pEC50 (Plasmodium falciparum [23]): 8.23; pEC50 (Plasmodium falciparum [24]): 8.01; IC50 (Cytochrome P450 2C8): > 20000 nM; TDI (Cytochrome P450 3A4): Not Active; solubility [25]: 113 µg/mL (≈ 289 µM); solubility [26]: 60 µg/mL (≈ 153 µM); solubility [27]: 158 µg/mL (≈ 404 µM)
Cc1cc(C(C)NC(=O)c2[nH]cc(Cc3ccc(C(F)(F)F)nc3)c2C)no1 (stereo in doubt; form 1)	8.14	Not Active	Not Active	Not Active	Non-Toxic	Non-Toxic	75	43.3	63	111	2.3	1	13	66	94.7	93.7	92.2	clearance at 24 h [31]: 7.7 mL/min/kg; Vd at 24 h [32]: 1.4 L/kg; bioavailability [33]: 61%; half-life [34]: 4.1 h; Tmax [35]: 4.3 h; Cmax [36]: 16 µM; AUC(0-inf) [37]: 160 µM·h; bioavailability [38]: 43%; pEC50 (Plasmodium falciparum [39]): 8.06; pEC50 (Plasmodium berghei): 8.08; pEC50 (Plasmodium falciparum [40]): 8.03; Papp [41]: 48 10^-6 cm/s; Papp [42]: 57 10^-6 cm/s
